Data from ChEMBL document CHEMBL3832761, “MMV Pathogen Box Bioactivity Data” (2017).
The source made the active and inactive calls. The calls are words filed in the database; no cut-off is given here.

What was measured:
HepG2 = assay: Cytotoxicity data HepG2 CC20 (uM); format: functional
Schistosoma mansoni [1] = assay: AntiSchistosoma mansoni activity Newly Transformed Schistosomula: IC50 at 72h (uM); format: functional, organism-based
Schistosoma mansoni [2] = assay: AntiSchistosoma mansoni activity Newly Transformed Schistosomula: inhibition at 10 uM at 72h (%); format: functional
Schistosoma mansoni [3] = assay: AntiSchistosoma mansoni activity Juveniles IC50 (uM); format: functional, organism-based
Cryptosporidium parvum [4] = assay: AntiCryptosporidium parvum activity Compounds added at t0, IC 50 (uM); format: functional, organism-based
[5] = HL60 CC50 (uM) Cytotoxicity; format: functional; details: HL-60
Cryptosporidium parvum [6] = assay: AntiCryptosporidium parvum activity Compounds added 3h after t0, IC 50 (uM); format: functional, organism-based
Schistosoma mansoni [7] = assay: AntiSchistosoma mansoni activity Adults IC50 (uM); format: functional, organism-based
MRC5 = assay: MRC5 CC50 (uM) Cytotoxicity; format: functional; details: Homo sapiens
Trypanosoma brucei [8] = assay: AntiTrypanosoma brucei activity T. b. rhodesiense IC50 (uM); format: functional, organism-based
[9] = PMM CC50 (uM) Cytotoxicity; format: functional; details: Macrophage
Trypanosoma cruzi = assay: AntiTrypanosoma cruzi activity IC50 (uM); format: functional, organism-based
Leishmania major = assay: AntiLeishmania activity L. major IC50 (uM); format: functional, organism-based
Leishmania infantum = assay: AntiLeishmania activity L. infantum (macrophages) IC50 (uM); format: functional, organism-based
Trypanosoma brucei [10] = assay: AntiTrypanosoma brucei activity T. b. brucei IC50 (uM); format: functional, organism-based
Schistosoma mansoni [11] = assay: AntiSchistosoma mansoni activity Larva IC50 (uM); format: functional, organism-based
Schistosoma mansoni [12] = assay: AntiSchistosoma mansoni activity Adults: Effect at 10 uM after 48h; format: functional, organism-based
Onchocerca volvulus = assay: AntiOnchocerca activity O. volvulus L3 Molting assay: inhibition at 10 uM (%); format: functional
Onchocerca ochengi [13] = assay: AntiOnchocerca activity O. ochengi adult males: final mean inhibition motility at 10 uM on Day 5 (%); format: functional
Onchocerca lienalis = assay: AntiOnchocerca activity O. lienalis microfilariae Motility reduction (%); format: functional; parameters: concentration or dose not given beside the values
Onchocerca gutturosa [14] = assay: AntiOnchocerca activity O. gutturosa adult males: Motility reduction at 12.5 uM (%); format: functional; parameters: scale not given: the % may be the effect or the level left
Brugia pahangi = assay: AntiBrugia pahangi activity Average inhibition motility at 10 uM (%); format: functional
Onchocerca ochengi [15] = assay: AntiOnchocerca activity O. ochengi adult females: final mean inhibition motility at 10 uM on Day 7 (%); format: functional
Onchocerca gutturosa [16] = assay: AntiOnchocerca activity O. gutturosa adult males: MTT reduction at 12.5 uM (%); format: functional; parameters: scale not given: the % may be the effect or the level left

CNc1nnc(Sc2cnn(-c3ccccc3)c(=O)c2Cl)s1
CC20 (HepG2): 1.55 µM
IC50 (Schistosoma mansoni [1]): 150 nM
Inhibition (Schistosoma mansoni [2]): 100%
IC50 (Schistosoma mansoni [3]): 3.7 µM

CC(C)(C)n1nc(Cc2cccc3ccccc23)c2c(N)ncnc21
IC50 (Cryptosporidium parvum [4]): 100 nM
CC20 (HepG2): 19 µM
CC50 [5]: 24.1 µM
IC50 (Cryptosporidium parvum [6]): > 10 µM

Cc1[nH]c2ccccc2c1C(c1cccs1)N1CCN(C)CC1 (stereo not given)
CC20 (HepG2): 8.46 µM
IC50 (Schistosoma mansoni [7]): 7.2 µM
IC50 (Schistosoma mansoni [1]): 290 nM
Inhibition (Schistosoma mansoni [2]): 100%
CC50 (MRC5): > 20 µM
IC50 (Schistosoma mansoni [3]): 3.8 µM

Nc1ccc2ncnc(Nc3ccc(OCc4cccc(F)c4)c(Cl)c3)c2c1
IC50 (Trypanosoma brucei [8]): 13.1 µM
CC20 (HepG2): 9.72 µM
CC50 [9]: > 32 µM
IC50 (Trypanosoma cruzi): 4030 nM
IC50 (Leishmania major): 10.4 µM
CC50 (MRC5): > 32 µM
IC50 (Leishmania infantum): > 32000 nM
IC50 (Trypanosoma brucei [10]): > 32 µM

c1ccc(-c2[nH]c3ccccc3c2C(c2ccccn2)N2CCCC2)cc1 (stereo not given)
CC20 (HepG2): 1 µM
IC50 (Schistosoma mansoni [7]): 3.2 µM
IC50 (Schistosoma mansoni [1]): 510 nM
Inhibition (Schistosoma mansoni [2]): 100%
CC50 (MRC5): 86 µM
IC50 (Schistosoma mansoni [11]): 0.5 µM
IC50 (Schistosoma mansoni [3]): 2.5 µM

COc1ccc(-c2nnc3ccc(-c4cccc(C(C)C)c4)cn23)cc1OC
CC20 (HepG2): 7.5 µM
IC50 (Schistosoma mansoni [7]): 1.6 µM
IC50 (Schistosoma mansoni [1]): 5690 nM
Inhibition (Schistosoma mansoni [2]): 79%
CC50 (MRC5): 18.6 µM
IC50 (Schistosoma mansoni [11]): 6.6 µM
Activity (Schistosoma mansoni [12]): Active
IC50 (Schistosoma mansoni [3]): 4 µM

COc1ccc(-c2nn(C(C)C)c3ncnc(N)c23)cc1OC
IC50 (Cryptosporidium parvum [4]): 500 nM
CC20 (HepG2): 1.63 µM
CC50 [5]: 25.1 µM
IC50 (Cryptosporidium parvum [6]): 13.9 µM

O=C(CN1CCOCC1)Nc1ccc2ncnc(Nc3ccc(OCc4cccc(F)c4)c(Cl)c3)c2c1
IC50 (Trypanosoma brucei [8]): 3.07 µM
CC20 (HepG2): 10.9 µM
CC50 [9]: > 32 µM
IC50 (Trypanosoma cruzi): 950 nM
IC50 (Leishmania major): 12.4 µM
CC50 (MRC5): 6.4 µM
IC50 (Leishmania infantum): > 32000 nM
IC50 (Trypanosoma brucei [10]): 5.31 µM

Cc1ccccc1C(=O)N1N=C(Nc2ccccc2)SC1(C)C
CC20 (HepG2): 8 µM
IC50 (Schistosoma mansoni [7]): 5.3 µM
Inhibition (Schistosoma mansoni [2]): 0%
CC50 (MRC5): > 50 µM
IC50 (Schistosoma mansoni [11]): 6.7 µM
IC50 (Schistosoma mansoni [3]): 5.8 µM

Cc1nn(C(=O)Nc2cccc(C(F)(F)F)c2)c(C)c1Sc1ncccn1
CC20 (HepG2): 30.7 µM
IC50 (Schistosoma mansoni [7]): 2 µM
Inhibition (Schistosoma mansoni [2]): 33.3%
Activity (Schistosoma mansoni [12]): Active
IC50 (Schistosoma mansoni [3]): 4.05 µM

O=C(c1ccc(F)cc1)N(CCNc1ccccc1)c1ccccc1
CC20 (HepG2): 18.5 µM
CC50 [5]: > 50 µM
Inhibition (Onchocerca volvulus): 89%
Inhibition (Onchocerca ochengi [13]): 0%
Activity (Onchocerca lienalis): 13.3%
Activity (Onchocerca gutturosa [14]): 28.6%
Inhibition (Brugia pahangi): 17%
Inhibition (Onchocerca ochengi [15]): 0%
Activity (Onchocerca gutturosa [16]): 0%

COc1ccc(-c2cnc3cnc(-c4cccc(OC(C)C)c4)cn23)cc1
CC20 (HepG2): 24.3 µM
IC50 (Schistosoma mansoni [7]): 4.9 µM
IC50 (Schistosoma mansoni [1]): 1180 nM
Inhibition (Schistosoma mansoni [2]): 93%
CC50 (MRC5): 40.1 µM
IC50 (Schistosoma mansoni [11]): 6.7 µM
Activity (Schistosoma mansoni [12]): Active
IC50 (Schistosoma mansoni [3]): 5.7 µM

COCC(C)NC(=O)CSc1ncnc2sc(-c3ccccc3)cc12 (stereo not given)
CC20 (HepG2): >80 µM
Inhibition (Schistosoma mansoni [2]): 50%
Activity (Schistosoma mansoni [12]): inactive

CC(C)C(Oc1cccc2ccccc12)C(=O)O (stereo not given)
IC50 (Cryptosporidium parvum [4]): > 10000 nM
CC20 (HepG2): >80 µM
CC50 [5]: > 50 µM
IC50 (Cryptosporidium parvum [6]): > 10 µM

CC(C)(C)c1ccc(N[C@@H]2CCCC[C@H]2NC(=O)c2ccco2)cc1
CC20 (HepG2): 35.9 µM
CC50 [5]: > 50 µM
Inhibition (Onchocerca volvulus): 80%
Inhibition (Onchocerca ochengi [13]): 1%
Activity (Onchocerca lienalis): 13.3%
Activity (Onchocerca gutturosa [14]): 50%
Inhibition (Brugia pahangi): 3%
Inhibition (Onchocerca ochengi [15]): 0%
Activity (Onchocerca gutturosa [16]): 37.7%

Clc1ccc(-n2cc(COc3ccnc4ccccc34)nn2)cc1
IC50 (Cryptosporidium parvum [4]): > 5000 nM
CC20 (HepG2): 13.6 µM
CC50 [5]: > 50 µM
IC50 (Cryptosporidium parvum [6]): 1.51 µM

COC(=O)c1c(NC(=O)c2cc3ccccc3oc2=O)sc2c1CCN(Cc1ccccc1)C2
CC20 (HepG2): 12.3 µM
CC50 [5]: > 50 µM
Inhibition (Onchocerca volvulus): 100%
Inhibition (Onchocerca ochengi [13]): 0%
Activity (Onchocerca lienalis): 33.3%
Activity (Onchocerca gutturosa [14]): 21.4%
Inhibition (Brugia pahangi): 10%
Inhibition (Onchocerca ochengi [15]): 8%
Activity (Onchocerca gutturosa [16]): 0%

Nc1ncnc2c1c(Cc1cccc3ccccc13)nn2CC1CCNCC1
IC50 (Cryptosporidium parvum [4]): 500 nM
CC20 (HepG2): >80 µM
CC50 [5]: > 50 µM
IC50 (Cryptosporidium parvum [6]): 25.9 µM

CS(=O)(=O)c1ccc(C(=O)N(CC2CCCO2)c2nc3ccccc3s2)cc1[N+](=O)[O-] (stereo not given)
CC20 (HepG2): 6.94 µM
IC50 (Schistosoma mansoni [7]): 4.8 µM
Inhibition (Schistosoma mansoni [2]): 100%
CC50 (MRC5): 6.2 µM
IC50 (Schistosoma mansoni [11]): 0.29 µM
IC50 (Schistosoma mansoni [3]): 3.22 µM

COc1ccc(OC)c(NCc2ccc3nc(N)nc(N)c3c2Cl)c1
IC50 (Cryptosporidium parvum [4]): 100 nM
CC20 (HepG2): 3.44 µM
CC50 [5]: > 25 µM
IC50 (Cryptosporidium parvum [6]): 3.98 µM

CN1CCN(S(=O)(=O)c2ccc(-c3ccc4c(Nc5ncc(Cl)cn5)ccnc4c3)cc2)CC1
IC50 (Trypanosoma brucei [8]): 0.96 µM
CC20 (HepG2): 8 µM
CC50 [9]: 4 µM
IC50 (Trypanosoma cruzi): 3810 nM
IC50 (Leishmania major): 8.51 µM
CC50 (MRC5): > 32 µM
IC50 (Leishmania infantum): 2540 nM
IC50 (Trypanosoma brucei [10]): 3.78 µM

COc1ccc(-c2onc(C(F)(F)F)c2-c2ccc(Cl)cc2)c(O)c1
IC50 (Schistosoma mansoni [7]): 5.3 µM
Inhibition (Schistosoma mansoni [2]): 20%
CC50 (MRC5): 8.3 µM
IC50 (Schistosoma mansoni [11]): 3.36 µM
IC50 (Schistosoma mansoni [3]): 7.02 µM

Cn1ncc2c(N3CCOCC3)nc(NCCc3c[nH]c4ccccc34)nc21 [TDR79432]
CC20 (HepG2): 4.63 µM
IC50 (Schistosoma mansoni [1]): 430 nM
Inhibition (Schistosoma mansoni [2]): 88%
Activity (Schistosoma mansoni [12]): Active

Cc1ncc(-c2ccnc(Nc3ccc(S(C)(=O)=O)cc3)n2)n1C(C)C [AZD-5438]
IC50 (Trypanosoma brucei [8]): < 0.13 µM
CC20 (HepG2): 0.18 µM
CC50 [9]: 4 µM
IC50 (Trypanosoma cruzi): 1080 nM
IC50 (Leishmania major): 3.15 µM
CC50 (MRC5): 1 µM
IC50 (Leishmania infantum): 1150 nM
IC50 (Trypanosoma brucei [10]): 0.26 µM

CS(=O)(=O)N1CCC(Cn2nc(Cc3cccc4ccccc34)c3c(N)ncnc32)CC1
IC50 (Cryptosporidium parvum [4]): 100 nM
CC20 (HepG2): 53 µM
CC50 [5]: 47.3 µM
IC50 (Cryptosporidium parvum [6]): > 10 µM

COc1ccc(N(CCc2cccc(C)n2)C(C)=O)cc1
CC20 (HepG2): >80 µM
CC50 [5]: > 50 µM
Inhibition (Onchocerca volvulus): 88%
Inhibition (Onchocerca ochengi [13]): 6%
Activity (Onchocerca lienalis): 13.3%
Activity (Onchocerca gutturosa [14]): 35.7%
Inhibition (Brugia pahangi): 6%
Inhibition (Onchocerca ochengi [15]): 0%
Activity (Onchocerca gutturosa [16]): 29.6%

COc1cc(NC(=O)Cc2nn(C)c(=O)c3ccccc23)ccc1Cl
IC50 (Cryptosporidium parvum [4]): < 100 nM
CC20 (HepG2): >80 µM
CC50 [5]: > 50 µM
IC50 (Cryptosporidium parvum [6]): 0.68 µM

c1ccc(Oc2ccc(-c3cncc(-c4ccc5[nH]ccc5c4)n3)cc2)cc1
CC20 (HepG2): 25.7 µM
IC50 (Schistosoma mansoni [7]): 3.7 µM
IC50 (Schistosoma mansoni [1]): 270 nM
Inhibition (Schistosoma mansoni [2]): 100%
CC50 (MRC5): 20 µM
IC50 (Schistosoma mansoni [11]): 1.4 µM
Activity (Schistosoma mansoni [12]): Active
IC50 (Schistosoma mansoni [3]): 2.1 µM
